Consider 1 molecule from US20160115167A1, “BMP INHIBITORS AND METHODS OF USE THEREOF” (THE BRIGHAM AND WOMEN'S HOSPITAL, INC., priority 2013, published 2016).

This assay deals with BMP7 induced pSMAD1/5/8 in BMPR2−/− and TGF-β1 induced pSMAD2. As to the kind of experiment: Western blot, BMP7 vs TGF-beta induced pSMAD in PASMCs. Format: cell-based, mice. The following applies: versus LDN-193189; BMPR2-deficient and wild type PASMCs; FIGS. 5b and 5c. On the procedure: C2C12 […] cells stably transfected with BMP responsive element from the Idl promoter fused to luciferase reporter gene (BRE-Luc) and human embryonic kidney 293T cells stably transfected with the TGF-β responsive element from the PAI-1 promoter fused to luciferase reporter gene (CAGA-Luc) were cultured in DMEM (Life Technologies) supplemented with 10% FBS, L-glutamine, and pen/strep at 37° C. and 10% CO2. HepG2 human hepatoma cells (ATCC) were cultured in EMEM (Life Technologies) supplemented with 10% FBS, L-glutamine, and pen/strep at 37° C. and 10% CO2. C2C12 […] (ATCC) were cultured in DMEM (Life Technologies) supplemented with 10% FBS, L-glutamine, and pen/strep at 37° C. and 10% CO2. […]
Both WT and BMPR2^del/del PASMCs were seeded in 12-well plates (Falcon®; BD Biosciences) at 75% confluency (˜375,000 cells in 480 μL per well). […] The phosphorylation state of downstream effector proteins (pSMAD1/5/8 and pSMAD2 for BMP and TGF-β respectively) was measured by western blotting performed 30 minutes after ligand stimulation. Western blots were analyzed using ImageJ with positive controls at 100% ligand induced phospho-SMAD and negative controls being subtracted as background. […]

Turning to `c1cc(-c2cnn3cc(-c4ccc(N5CCNCC5)cc4)cnc23)c2cccnc2c1` [LDN-212854], the “selectivity, BMP7 induced pSMAD1/5/8 versus TGF-β1 induced pSMAD2” value was “improved selectivity”.
